Measured values as given in patent US10821115B2, “Compounds that inhibit Mcl-1 protein” (priority 2017, dated 2020).
Read-outs that look alike come from different tables or passages of the source.

Columns and labels:
[1] = test system: human multiple myeloma cell line, OPM-2; assay: Cell viability assay (OPM-2 10 FBS), CellTiter-Glo; assay type: cell-based
Procedure, shortened: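 Serially diluted test compounds are incubated 16 h with cells (3000/well) in RPMI 1640 supplemented with 10% FBS. Viability is then measured by luminescence and IC50 calculated by 4-parameter logistic fit.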

[2] = target: recombinant human Mcl-1 (residues 171-327) / Bim interaction (Homo sapiens (Human), UniProt Q07820); assay: biochemical; assay type: binding; details: read-out: Mcl-1 HTRF IC50
[3] = read-out: OPM-2 10% FBS IC50 IP, OPM-2 cells, 10% FBS, 16 h, CellTiter-Glo
[4] = TR-FRET, Mcl-1(171-327) / biotin-Bim (51-76)
[5] = Homo sapiens, OPM-2, 16 h, read-out: OPM-2 10% FBS IC50 IP, OPM-2 cells, 10% FBS, 16 h, CellTiter-Glo
[6] = Homo sapiens, OPM-2, 16 h, read-out: OPM-2 10% FBS IC50 IP, OPM-2 cells, 10% FBS, 16 h incubation
[7] = 0.1 nM Mcl-1(171-327), 0.05 nM biotin-Bim (51-76)

Chain of recombinant human Mcl-1 (residues 171-327) / Bim interaction (Q07820 171-327): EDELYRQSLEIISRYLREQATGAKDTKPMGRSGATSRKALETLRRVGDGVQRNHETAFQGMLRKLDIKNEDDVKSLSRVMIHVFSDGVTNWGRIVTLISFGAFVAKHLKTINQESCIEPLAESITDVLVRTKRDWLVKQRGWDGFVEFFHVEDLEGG

Row | SMILES | IC50 [1, 3] [nM] | IC50 [2, 4] [nM] | IC50 [1, 5] [nM] | other results
1 | C[C@@H]1[C@@H](C)CCC[C@@](O)([C@@H]2CCN(C)C2=O)[C@@H]2CC[C@H]2CN2C[C@@]3(CCCc4cc(Cl)ccc43)COc3ccc(cc32)C(=O)NS1(=O)=O [Example 100202, (1S,3′R,6′R,7′S,11′S,12′R)-6-chloro-7′-hydroxy-11′,12′-dimethyl-7′-((3S)-1-methyl-2-oxo-3-pyrrolidinyl)-3,4-dihydro-2H,15′H-spiro[naphthalene-1,22′-[20]oxa[13]thia[1,14]diazatetracyclo [14.7.2.0~3,6~.0~19,24~]pentacosa[16,18,24]trien]-15′-one 13′,13′-dioxide] | 928 | 0.352 |  | 
2 | C[C@@H]1[C@@H](C)CCC[C@](C)(O)[C@@H]2CC[C@H]2CN2C[C@@]3(CCCc4cc(Cl)ccc43)COc3ccc(cc32)C(=O)NS1(=O)=O [Example 100049, (1S,3′R,6′R,7′S,11′S,12′R)-6-chloro-7′-hydroxy-7′,11′,12′-trimethyl-3,4-dihydro-2H,15′H-spiro[naphthalene-1,22′-[20]oxa[13]thia[1,14]diazatetracyclo [14.7.2.0~3,6~.0~19,24~]pentacosa[16,18,24]trien]-15′-one 13′,13′-dioxide] |  | 1.26 | 2150 | 
3 | CC(C)[C@@]1(O)/C=C/C[C@H](C)[C@@H](C)S(=O)(=O)NC(=O)c2ccc3c(c2)N(C[C@@H]2CC[C@H]21)C[C@@]1(CCCc2cc(Cl)ccc21)CO3 [Example 100210, (1S,3′R,6′R,7′R,8′E,11′S,12′R)-6-chloro-7′-hydroxy-11′,12′-dimethyl-7′-(2-propanyl)-3,4-dihydro-2H,15′H-spiro[naphthalene-1,22′-[20]oxa[13]thia[1,14]diazatetracyclo [14.7.2.0~3,6~.0~19,24~]pentacosa[8,16,18,24]tetraen]-15′-one 13′,13′-dioxide] |  | 3.47 | 3360 | 
4 | COC[C@@H]1[C@@H](C)C/C=C/[C@](CN2CCN3CCOC[C@@H]3C2)(OC)[C@@H]2CC[C@H]2CN2C[C@@]3(CCCc4cc(Cl)ccc43)COc3ccc(cc32)C(=O)NS1(=O)=O [Example 168, (1S,3′R,6′R,7′S,8′E,11′S,12′S)-6-chloro-7′-((9aS)-hexahydropyrazino[2,1-c][1,4]oxazin-8(1H)-ylmethyl)-7′-methoxy-12′-(methoxymethyl)-11′-methyl-3,4-dihydro-2H,15′H-spiro[naphthalene-1,22′-[20]oxa[13]thia[1,14]diazatetracyclo [14.7.2.0~3,6~.0~19,24~]pentacosa[8,16,18,24]tetraen]-15′-one 13′,13′-dioxide] |  |  |  | IC50 [1, 6]: 52 nM; IC50 [2, 7]: 0.138 nM
5 | C[C@@H]1[C@@H](C)C/C=C/[C@@](O)(Cc2ccncn2)[C@@H]2CC[C@H]2CN2C[C@@]3(CCCc4cc(Cl)ccc43)COc3ccc(cc32)C(=O)NS1(=O)=O [Example 100151, (1S,3′R,6′R,7′S,8′E,11′S,12′R)-6-chloro-7′-hydroxy-11′,12′-dimethyl-7′-(4-pyrimidinylmethyl)-3,4-dihydro-2H,15′H-spiro[naphthalene-1,22′-[20]oxa[13]thia[1,14]diazatetracyclo [14.7.2.0~3,6~.0~19,24~]pentacosa[8,16,18,24]tetraen]-15′-one 13′,13′-dioxide] | 71 | 0.12 |  | 
6 | C[C@@H]1[C@@H](C)C/C=C/[C@](O)(c2cnc(Cl)n2C)[C@@H]2CC[C@H]2CN2C[C@@]3(CCCc4cc(Cl)ccc43)COc3ccc(cc32)C(=O)NS1(=O)=O (single isomer, unassigned) [Example 100543] |  | 0.451 | 821 | 
7 | CO[C@@]1(CN2CCN(Cc3nc(C)c(C)o3)CC2)/C=C/C[C@H](C)[C@@H](C)S(=O)(=O)NC(=O)c2ccc3c(c2)N(C[C@@H]2CC[C@H]21)C[C@@]1(CCCc2cc(Cl)ccc21)CO3 [Example 322, (1S,3′R,6′R,7′S,8′E,11′S,12′R)-6-chloro-7′-((4-((4,5-dimethyl-1,3-oxazol-2-yl)methyl)-1-piperazinyl)methyl)-7′-methoxy-11′,12′-dimethyl-3,4-dihydro-2H,15′H-spiro[naphthalene-1,22′-[20]oxa[13]thia[1,14]diazatetracyclo [14.7.2.0~3,6~.0~19,24~]pentacosa[8,16,18,24]tetraen]-15′-one 13′,13′-dioxide] |  |  |  | IC50 [1, 6]: 87 nM; IC50 [2, 7]: 0.145 nM
8 | CCN(CC)C(=O)C[C@]1(O)CCC[C@H](C)[C@@H](C)S(=O)(=O)NC(=O)c2ccc3c(c2)N(C[C@@H]2CC[C@H]21)C[C@@]1(CCCc2cc(Cl)ccc21)CO3 [Example 100112, 2-((1S,3′R,6′R,7′R,11′S,12′R)-6-chloro-7′-hydroxy-11′,12′-dimethyl-13′,13′-dioxido-15′-oxo-3,4-dihydro-2H-spiro[naphthalene-1,22′-[20]oxa[13]thia[1,14]diazatetracyclo [14.7.2.0~3,6~.0~19,24~]pentacosa[16,18,24]trien]-7′-yl)-N,N-diethylacetamide] | 1800 |  |  | IC50 [2]: 1.29 nM
9 | C[C@@H]1[C@@H](C)CCC[C@](O)(CO)[C@@H]2CC[C@H]2CN2C[C@@]3(CCCc4cc(Cl)ccc43)COc3ccc(cc32)C(=O)NS1(=O)=O (single isomer, unassigned) [Example 100052] |  | 0.191 | 424 | 
10 | CO[C@@]1(c2csc(C)n2)/C=C/C[C@H](C)[C@@H](C)S(=O)(=O)NC(=O)c2ccc3c(c2)N(C[C@@H]2CC[C@H]21)C[C@@]1(CCCc2cc(Cl)ccc21)CO3 [Example 100517, (1S,3′R,6′R,7′S,8′E,11′S,12′R)-6-chloro-7′-methoxy-11′,12′-dimethyl-7′-(2-methyl-1,3-thiazol-4-yl)-3,4-dihydro-2H,15′H-spiro[naphthalene-1,22′-[20]oxa[13]thia[1,14]diazatetracyclo [14.7.2.0~3,6~.0~19,24~]pentacosa[8,16,18,24]tetraen]-15′-one 13′,13′-dioxide] |  | 1.06 | 3460 | 
11 | CO[C@@]1(CC(=O)N2CCN(C)C[C@H]2C)/C=C/C[C@H](C)[C@@H](C)S(=O)(=O)NC(=O)c2ccc3c(c2)N(C[C@@H]2CC[C@H]21)C[C@@]1(CCCc2cc(Cl)ccc21)CO3 (single isomer, unassigned) [Example 100480] | 221 | 0.176 |  | 
12 | CO[C@]1(CN2CCN3CCOC[C@@H]3C2)/C=C/C[C@H](C)[C@@H](C)S(=O)(=O)NC(=O)c2ccc3c(n2)N(C[C@@H]2CC[C@H]21)C[C@@]1(CCCc2cc(Cl)ccc21)CO3 [Example 185, (1S,3′R,6′R,7′R,8′E,11′S,12′R)-6-chloro-7′-((9aS)-hexahydropyrazino[2,1-c][1,4]oxazin-8(1H)-ylmethyl)-7′-methoxy-11′,12′-dimethyl-3,4-dihydro-2H,15′H-spiro[naphthalene-1,22′-[20]oxa[13]thia[1,14,25]triazatetracyclo [14.7.2.0~3,6~.0~19,24~]pentacosa[8,16,18,24]tetraen]-15′-one 13′,13′-dioxide] |  |  |  | IC50 [1, 6]: 1060 nM; IC50 [2, 7]: 0.17 nM
13 | C[C@@H]1[C@@H](C)C/C=C/[C@@](O)(c2ccncn2)[C@@H]2CC[C@H]2CN2C[C@@]3(CCCc4cc(Cl)ccc43)COc3ccc(cc32)C(=O)NS1(=O)=O (single isomer, unassigned) [Example 100360] |  | 0.848 | 1230 | 
